Reference: patent US8222216B2, “Mesenchymal cell proliferation promoter and skeletal system biomaterial” (Osaka University, priority 2006, dated 2012)
No end group written: not given here.

Legend:
[1] = test system: human bone marrow-derived mesenchymal stem cells; assay: Proliferation of human marrow-derived mesenchymal stem cells (WST-1 cell counting); type: cell-based; details: 10 to 100 ng/ml peptide, day-4 or later, P<0.01, n=6, FIG. 1
Procedure: (§1) An in vitro experiment was conducted to analyze how the SVVYGLR peptide (SEQ ID NO: 1) affected a proliferating ability of mesenchymal cells present in intercellular substances of bone marrow and dental pulp.
(§2) Purchased human bone marrow-derived mesenchymal stem cells (Cambrex BioScience Inc.) were used as the mesenchymal cells of the intercellular substance of bone marrow. Further, “dental pulp cells”, the mesenchymal cells that constitute a main component of dental pulp tissue, were isolated from a lower incisor of a Sprague-Dawley rat (8-week old male) and cultured based on the method of Nakamura H et al. (J Dent Res. 84: 515-520: 2005), and used for the experiment.
(§3) These cells were seeded into a 96-well cell culture plate at a rate of 5,000 cells/well, and the number of cells under the presence of the SVVYGLR peptide (SEQ ID NO: 1) (0 to 100 ng/ml) was measured by using WST-1 Cell Counting Kit (DOJINDO LABORATORIES). A culture medium was replaced every other day.

dental pulp cells = assay: Proliferation of dental pulp cells (WST-1 cell counting); type: cell-based, Sprague-Dawley rat; details: 10 to 100 ng/ml peptide, day-10 or later, P<0.01, n=6, FIG. 2
Procedure: as §1, §2, §3

[2] = test system: mesenchymal cells isolated from thigh bone marrow; assay: Pellet culture of bone marrow mesenchymal cells (three-dimensional proliferation); type: cell-based, Sprague-Dawley rat; details: 100 ng/ml peptide
Procedure: A pellet culture experiment was conducted to analyze how the SVVYGLR peptide (SEQ ID NO: 1) affected the mesenchymal cells when the mesenchymal cells clump together three-dimensionally over a long time.
The mesenchymal cells were isolated from thigh bone marrow of a Sprague-Dawley rat (8-week old male), and cultured in a pellet culture with initial count of 50,000 cells based on the method of Tsutsumi S et al. (Biochem Biophys Res Commun. 288:413-419:2001). The incubation was carried out with a culture medium prepared in such a manner that dexamethasone (100 nM, Sigma-Aldrich), ascorbic acid (50 μg/ml, Sigma-Aldrich), ITS+ premix (100 times diluted, BD Biosciences), and recombinant human transforming growth factor-β1 (10 ng/ml, PeproTech EC) were added to α-MEM (high glucose: Nacalai Tesque, Inc). The SVVYGLR peptide (SEQ ID NO: 1) (100 ng/ml) was added to the culture medium and the pellet was incubated for 26 days. The culture medium was replaced every other day.
The pellet was collected and fixed in phosphate buffered 10% formalin solution for 3 hours at 4° C. After the pellet was washed with PBS (pH7.4), the pellet was soaked in the PBS of a culture plate and photographed under a phase contrast microscope. Planar dimensions of the pellet on a photographed image were measured by using an image analysis software ImageJ ver.1.33u (National Institute of health, USA).

[3] = test system: human marrow-derived mesenchymal stem cells; assay: Adhesion of human marrow-derived mesenchymal stem cells to peptide-coated plate (crystal violet); type: cell-based; details: plate coated with 0.01 to 100 μg/ml peptide, 30 minutes incubation, P<0.01, n=8, FIG. 9
Procedure: (§4) An effect that is exerted on adhesive capacity of the mesenchymal cells by the SVVYGLR peptide (SEQ ID NO: 1) was analyzed. The mesenchymal cells used in this example were: human marrow-derived mesenchymal stem cells (human mesenchymal stem cell for study: provided by RIKEN CELL BANK); human gingival fibroblasts (isolated from human gingival and cultured according to a publicly known method); and human periodontal ligament cells (normal human periodontal ligament fibroblast cells: purchased from Sanko Junyaku Co., Ltd).
(§5) A coating plate was produced through the steps of: adding the synthesized SVVYGLR peptide (SEQ ID NO: 1) (0 to 100 μg/ml) to a 96-well microplate for floating cells (ASAHI TECHNO GLASS CORPORATION) for culturing these cells, allowing the microplate to stand for 2 hours at 37 °C, and rinsing the microplate twice in phosphate buffer (PBS: Sigma Pharmaceuticals Ltd). The SVVYGLR peptide (SEQ ID NO: 1) was synthesized with the method described in example 1. […]
(§6) The cells attached to the coating plate were stained with 0.1% crystal violet (Wako Chemicals USA. Inc) […], and then rinsed three times with PBS. Twenty-percent TritonX (Sigma Pharmaceuticals Ltd) was added to each well, and 48 hours later, optical density of each well at a wavelength of […] was measured (reference wavelength […]) by using an optical density spectrometer (BioRad model 680).

[4] = test system: human gingival fibroblasts; assay: Adhesion of human gingival fibroblasts to peptide-coated plate (crystal violet); type: cell-based; details: plate coated with 0.01 to 100 μg/ml peptide, 30 minutes incubation, P<0.01, n=8, FIG. 10
Procedure: as §4, §5, §6

[5] = test system: human periodontal ligament cells; assay: Adhesion of human periodontal ligament cells to peptide-coated plate (crystal violet); type: cell-based; details: plate coated with 0.01 to 100 μg/ml peptide, 30 minutes incubation, P<0.01, n=8, FIG. 11
Procedure: as §4, §5, §6

SVVYGLR [SVVYGLR peptide, osteopontin-derived peptide of seven amino acids, synthesized by Fmoc solid-phase method]
number of human marrow-derived mesenchymal stem cells compared to control group [1]: significantly increased | number of dental pulp cells compared to control group (dental pulp cells): significantly increased | toluidine blue staining of pellet segments (extracellular matrix, acid mucopolysaccharide) ([2]; 26 days pellet culture): no toluidine blue staining was observed | pellet size (planar dimensions) relative to control group ([2]; incubated 26 days, three pellets per group, FIG. 4): 1.5 times | number of human marrow-derived mesenchymal stem cells adhered to coated plate compared to control [3]: significantly increased density-dependently | number of human gingival fibroblasts adhered to coated plate compared to control [4]: significantly increased density-dependently | number of human periodontal ligament cells adhered to coated plate compared to control [5]: significantly increased density-dependently
